# In PubChem BioAssay (NCI):
#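 Each compound was tested at five concentrations against cells in 96-well plates for 48 hours. TGI marks complete inhibition of growth.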
# How the values were obtained:
# Assay in all cases: DTP human tumour cell line panel, 48 h
# 786-0 renal = test system: 786-0 renal
# A498 renal = test system: A498 renal
# A549 NSCLC = test system: A549 NSCLC
# ACHN renal = test system: ACHN renal
# BT-549 breast = test system: BT-549 breast
# CAKI-1 renal = test system: CAKI-1 renal
# CCRF-CEM leukemia = test system: CCRF-CEM leukemia
# COLO 205 colon = test system: COLO 205 colon
# DU-145 prostate = test system: DU-145 prostate
# EKVX NSCLC = test system: EKVX NSCLC
# HCC-2998 colon = test system: HCC-2998 colon
# HCT-116 colon = test system: HCT-116 colon
# HCT-15 colon = test system: HCT-15 colon
# HL-60(TB) leukemia = test system: HL-60(TB) leukemia
# HOP-62 NSCLC = test system: HOP-62 NSCLC
# HOP-92 NSCLC = test system: HOP-92 NSCLC
# HS 578T breast = test system: HS 578T breast
# HT29 colon = test system: HT29 colon
# IGROV1 ovarian = test system: IGROV1 ovarian
# K-562 leukemia = test system: K-562 leukemia
# KM12 colon = test system: KM12 colon
# LOX IMVI melanoma = test system: LOX IMVI melanoma
# M14 melanoma = test system: M14 melanoma
# MALME-3M melanoma = test system: MALME-3M melanoma
# MCF7 breast = test system: MCF7 breast
# MDA-MB-231 breast = test system: MDA-MB-231 breast
# MDA-MB-435 = test system: MDA-MB-435
# MDA-N = test system: MDA-N
# MOLT-4 leukemia = test system: MOLT-4 leukemia
# NCI-H226 lung = test system: NCI-H226 lung
# NCI-H23 lung = test system: NCI-H23 lung
# NCI-H460 lung = test system: NCI-H460 lung
# NCI-H522 lung = test system: NCI-H522 lung
# NCI/ADR-RES ovarian = test system: NCI/ADR-RES ovarian
# OVCAR-3 ovarian = test system: OVCAR-3 ovarian
# OVCAR-4 ovarian = test system: OVCAR-4 ovarian
# OVCAR-5 ovarian = test system: OVCAR-5 ovarian
# OVCAR-8 ovarian = test system: OVCAR-8 ovarian
# PC-3 prostate = test system: PC-3 prostate
# RPMI-8226 leukemia = test system: RPMI-8226 leukemia
# RXF 393 renal = test system: RXF 393 renal
# SF-295 CNS = test system: SF-295 CNS
# SF-539 CNS = test system: SF-539 CNS
# SK-MEL-2 melanoma = test system: SK-MEL-2 melanoma
# SK-MEL-28 melanoma = test system: SK-MEL-28 melanoma
# SK-MEL-5 melanoma = test system: SK-MEL-5 melanoma
# SK-OV-3 ovarian = test system: SK-OV-3 ovarian
# SN12C renal = test system: SN12C renal
# SNB-19 CNS = test system: SNB-19 CNS
# SNB-75 CNS = test system: SNB-75 CNS
# SR leukemia = test system: SR leukemia
# SW-620 colon = test system: SW-620 colon
# T-47D breast = test system: T-47D breast
# TK-10 renal = test system: TK-10 renal
# U251 CNS = test system: U251 CNS
# UACC-62 melanoma = test system: UACC-62 melanoma
# UO-31 renal = test system: UO-31 renal
# SF-268 CNS = test system: SF-268 CNS
# UACC-257 melanoma = test system: UACC-257 melanoma
smiles,measurement,setting,value
CC1(C)Oc2ccc(NC(=O)CCC(N)C(=O)O)cc2O1 (configuration not stated),TGI,786-0 renal,> 100 µM
same,TGI,A498 renal,> 100 µM
same,TGI,A549 NSCLC,> 100 µM
same,TGI,ACHN renal,> 100 µM
same,TGI,BT-549 breast,> 100 µM
same,TGI,CAKI-1 renal,> 100 µM
same,TGI,CCRF-CEM leukemia,> 100 µM
same,TGI,COLO 205 colon,> 100 µM
same,TGI,DU-145 prostate,> 100 µM
same,TGI,EKVX NSCLC,> 100 µM
same,TGI,HCC-2998 colon,> 100 µM
same,TGI,HCT-116 colon,> 100 µM
same,TGI,HCT-15 colon,> 100 µM
same,TGI,HL-60(TB) leukemia,> 100 µM
same,TGI,HOP-62 NSCLC,> 100 µM
same,TGI,HOP-92 NSCLC,> 100 µM
same,TGI,HS 578T breast,> 100 µM
same,TGI,HT29 colon,> 100 µM
same,TGI,IGROV1 ovarian,> 100 µM
same,TGI,K-562 leukemia,> 100 µM
same,TGI,KM12 colon,> 100 µM
same,TGI,LOX IMVI melanoma,> 100 µM
same,TGI,M14 melanoma,> 100 µM
same,TGI,MALME-3M melanoma,> 100 µM
same,TGI,MCF7 breast,> 100 µM
same,TGI,MDA-MB-231 breast,> 100 µM
same,TGI,MDA-MB-435,> 100 µM
same,TGI,MDA-N,> 100 µM
same,TGI,MOLT-4 leukemia,> 100 µM
same,TGI,NCI-H226 lung,> 100 µM
same,TGI,NCI-H23 lung,> 100 µM
same,TGI,NCI-H460 lung,> 100 µM
same,TGI,NCI-H522 lung,> 100 µM
same,TGI,NCI/ADR-RES ovarian,> 100 µM
same,TGI,OVCAR-3 ovarian,> 100 µM
same,TGI,OVCAR-4 ovarian,> 100 µM
same,TGI,OVCAR-5 ovarian,> 100 µM
same,TGI,OVCAR-8 ovarian,> 100 µM
same,TGI,PC-3 prostate,> 100 µM
same,TGI,RPMI-8226 leukemia,> 100 µM
same,TGI,RXF 393 renal,> 100 µM
same,TGI,SF-295 CNS,> 100 µM
same,TGI,SF-539 CNS,> 100 µM
same,TGI,SK-MEL-2 melanoma,> 100 µM
same,TGI,SK-MEL-28 melanoma,> 100 µM
same,TGI,SK-MEL-5 melanoma,> 100 µM
same,TGI,SK-OV-3 ovarian,> 100 µM
same,TGI,SN12C renal,> 100 µM
same,TGI,SNB-19 CNS,> 100 µM
same,TGI,SNB-75 CNS,> 100 µM
same,TGI,SR leukemia,> 100 µM
same,TGI,SW-620 colon,> 100 µM
same,TGI,T-47D breast,> 100 µM
same,TGI,TK-10 renal,> 100 µM
same,TGI,U251 CNS,> 100 µM
same,TGI,UACC-62 melanoma,> 100 µM
same,TGI,UO-31 renal,> 100 µM
Cc1cc(C)n(CN(Cn2nc(C)cc2C)C2CCCCC2)n1,TGI,786-0 renal,48.9 µM
same,TGI,A498 renal,> 100 µM
same,TGI,A549 NSCLC,> 100 µM
same,TGI,ACHN renal,51.9 µM
same,TGI,BT-549 breast,49.6 µM
same,TGI,CAKI-1 renal,97.7 µM
same,TGI,CCRF-CEM leukemia,44.8 µM
same,TGI,COLO 205 colon,32 µM
same,TGI,DU-145 prostate,62.2 µM
same,TGI,EKVX NSCLC,84.5 µM
same,TGI,HCC-2998 colon,27.9 µM
same,TGI,HCT-116 colon,45.6 µM
same,TGI,HCT-15 colon,42.6 µM
same,TGI,HOP-62 NSCLC,69.6 µM
same,TGI,HOP-92 NSCLC,87.5 µM
same,TGI,HS 578T breast,> 100 µM
same,TGI,HT29 colon,42.4 µM
same,TGI,IGROV1 ovarian,50.1 µM
same,TGI,KM12 colon,49.2 µM
same,TGI,LOX IMVI melanoma,46.3 µM
same,TGI,M14 melanoma,36.8 µM
same,TGI,MALME-3M melanoma,51.9 µM
same,TGI,MCF7 breast,> 100 µM
same,TGI,MDA-MB-231 breast,64.2 µM
same,TGI,MDA-MB-435,45.4 µM
same,TGI,MDA-N,34.8 µM
same,TGI,NCI-H23 lung,56.8 µM
same,TGI,NCI-H460 lung,> 100 µM
same,TGI,NCI-H522 lung,43.8 µM
same,TGI,NCI/ADR-RES ovarian,42.5 µM
same,TGI,OVCAR-3 ovarian,56.9 µM
same,TGI,OVCAR-4 ovarian,67.9 µM
same,TGI,OVCAR-5 ovarian,53.8 µM
same,TGI,OVCAR-8 ovarian,58.4 µM
same,TGI,PC-3 prostate,60 µM
same,TGI,RPMI-8226 leukemia,38.9 µM
same,TGI,RXF 393 renal,50.9 µM
same,TGI,SF-268 CNS,91.3 µM
same,TGI,SF-295 CNS,> 100 µM
same,TGI,SF-539 CNS,29.1 µM
same,TGI,SK-MEL-2 melanoma,36.7 µM
same,TGI,SK-MEL-28 melanoma,42.5 µM
same,TGI,SK-MEL-5 melanoma,> 100 µM
same,TGI,SK-OV-3 ovarian,> 100 µM
same,TGI,SN12C renal,66.3 µM
same,TGI,SNB-19 CNS,> 100 µM
same,TGI,SNB-75 CNS,76.8 µM
same,TGI,SR leukemia,> 100 µM
same,TGI,SW-620 colon,92.7 µM
same,TGI,T-47D breast,76.2 µM
same,TGI,TK-10 renal,> 100 µM
same,TGI,U251 CNS,83.6 µM
same,TGI,UACC-257 melanoma,78.4 µM
same,TGI,UACC-62 melanoma,41.7 µM
same,TGI,UO-31 renal,52.4 µM
